Reference: patent publication US20030199449A1, “Combination of ablation and controlled drug delivery for the treatment of cancer” (priority 2002, published 2003)

How the values were obtained:
in vivo = conditions: RF ablated liver; for concentration at 24 h: male, Sprague Dawley, rat, in vivo, 5-FU concentration in liver tissue
Text: The medial lobe of each liver was exposed through a small midline incision.
For the ablation procedure, the livers were placed on a wire mesh grounding pad and a saline soaked sponge. Ablation was accomplished using a 200-W radiofrequency generator (model CTRF-A, Radionics, Burlington, Mass.) using a 19-gauge needle electrode (model PE-D(10)(2) Radionics , Burlington, Mass.). Ablation was initiated by inserting the needle electrode into a needle tract made with a 23-gauge needle in the center of the lobe. The electrode was inserted to a depth of approximately 8-mm. The hepatic tissue exposed to the radiofrequency current was raised to a temperature of 90° C. for 3 min. […] After the electrode was removed, a 5-FU rod was placed in the probe tract and a fat pad was sewn over the top.

neoplastic tissue = conditions: reported; cited from earlier work
VX-2 tumor = assay: 5-FU rods plus radio-frequency ablation in VX-2 tumors in the liver of rabbits, tumor volume; format: in vivo, New Zealand white rabbits
Protocol: (§1) Male New Zealand white rabbits (−3 kg) were used and were cared for in accordance with the Case Western Reserve University animal research center regulations. The rabbits were anesthetized using a combination of xylazine (5 mg/kg body weight BW) and ketamine (50 mg/kg BW), acepromazine (2 mg/kg), and atropine (0.2 mg/kg) given by i.m. injection. The abdomen was shaved and cleaned with povidone-iodine solution (Betadine) and 0.5 ml of Marcaine was administered into the skin at the incision site. A small midline incision was made and the medial lobe of the liver was exposed and exteriorized. The capsule of the medial lobe was punctured with a scalpel blade and a small piece of VX-2 tumor (1 mm^3), which was propagated in another rabbit and stored in liquid nitrogen for later use, was inserted into the liver parenchyma. A small piece of fat was sutured over the implant site. The abdominal muscles were closed with suture and the skin was closed with subcutaneous hidden sutures. During the recovery period, all animals received buprenophrine (Buprenex, 0.5 mg/kg, i.m.), soon after surgery and once again 24 hrs later for pain. If the animals were later perceived to be in pain, additional buprenophrine was given as needed. The rabbits also received a subcutaneous injection of 25 ml of 0.9% saline during recovery and 24 hrs later.
Fourteen days after tumor implantation, the rabbits were anesthetized again using the protocol given above. The medial lobe of the liver was exteriorized and examined for tumor growth. The size of the tumor was approximately 0.5-1.0 cm in diameter and extended into the liver parenchyma. Before radio frequency ablation, a grounding pad was placed under the exteriorized medial lobe of the liver. […]
Tumor volumes after 28 days of growth, calculated from the digital photographs as well as the integration of the CT slices though the tumors of each rabbit, are given in the table below: […]

[1] = Local drug concentration distribution in normal (unablated) rat liver after implantation of 5-FU rod; conditions: 24 h, insertion point vs periphery
[2] = Body weight change after RFA plus 5-FU rods in VX-2 tumor rabbits; format: in vivo, New Zealand white rabbits; conditions: RFA plus 5-FU subgroup, last 14 days following RFA
Protocol: as §1, with “later. […]” for “later.”

[3] = In-vitro release of 5-FU from poly(CPP:SA) implants; format: physicochemical; conditions: 37° C., 120 rpm
Protocol: The drug 5-fluorouracil was analyzed by HPLC using a Regis C-18 reverse phase column. The mobile phase was deionized water at a flow rate of 0.6 ml/min and the injection volume was10 μl. The detector was set to monitor 266 nm. Calibration standards for the method were prepared as follows: A mass of 13 mg of 5-FU was dissolved in deionized water in a 50 ml volumetric flask to make a 2.00 mM stock solution. Sequential dilutions of the stock solution give standard solutions of 1.00, 0.200, 0.0500, 0.0100 and 0.00100 mM, respectively. The standards for the metabolite 5-FUR were similarly prepared at the concentrations of 2.00, 1.00, 0.200, 0.0500, 0.0100 and 0.00100 mM, respectively. The HPLC peak area of 5-FU and 5-FUR varied linearly with concentrations in the standard test range of 0.001-2 mM.
To measure in-vitro drug release of 5-F U from the implants, solid samples were pre-weighed and placed in a sterile 50-ml conical tubes filled with 20 ml of either phosphate buffered saline (PBS) or fetal bovine serum (FBS). The tubes were placed on the Gyromax 929 shaker adjusted to 37° C. and 120 rpm. Periodically, 0.1 ml of the solutions was transferred into a vial and diluted 20 times with deionized water. Aliquots of 0.1 ml of fresh PBS or FBS was added to the conical tubes each time to maintain a constant volume. […]

[4] = ablation + three 5-FU rods at day 14, after 28 days of growth, N = 4

| Compound | spatial distribution in ablated liver (in vivo; 5-FU rod in probe tract, 24 h and 48 h) | concentration at 24 h (in vivo; between 6 and 18 mm away from the ablation center) | concentration at 24 h (in vivo; within 24 h, immediate vicinity of the ablation site (~6 mm radius)) | level in neoplastic tissue sufficient for a clinical effect (neoplastic tissue) | reduction in tumor size (VX-2 tumor; ablation + local sustained release 5-FU vs ablation only) | Tumor Volumes, mean (1 SD), CT Scan (VX-2 tumor; [4]) | Tumor Volumes, mean (1 SD), Digital Photography (VX-2 tumor; [4]) | spatial distribution in normal (unablated) liver [1] | increase in body weight [2] | time to release 75% of the 5-FU from implant ([3]; FBS) | time to release 75% of the 5-FU from implant ([3]; PBS) |
| --- | --- | --- | --- | --- | --- | --- | --- | --- | --- | --- | --- |
| O=c1[nH]c(=O)n([C@H]2C[C@H](O)[C@@H](CO)O2)cc1F [5-FUR, 5-floxuridine] | contains less 5-FUR than that further away from the ablation site | – | – | – | – | – | – | – | – | – | – |
| O=c1[nH]cc(F)c(=O)[nH]1 [5-FU, 5-fluorouracil] | – | ~12000 ng/g | ≤ 41000 ng/g | 0.05 µg/g | ~50% | 1.71 (0.56) cm^3 | 1.24 (0.55) cm^3 | essentially the same throughout the whole liver | 2% | 2 days | 9 days |
